{"source": "patent US20230158157A1", "about": "“POTENT AND SELECTIVE DEGRADERS OF ALK” (DANA-FARBER CANCER INSTITUTE, INC., priority 2020, published 2023)", "assay_type_in_all_cases": "cell-based", "key": {"H3122 cells": {"test_system": "H3122 cells", "test": "CTG", "conditions": "Table 3, read-out: CTG IC50"}, "FAK": {"molecular_target": "T1, FAK (Homo sapiens, UniProt Q05397)", "T1 construct": "FAK Degradation; endogenous in cells; host or cells: H3122", "test": "FAK degradation (H3122 cells)", "conditions": "for Dmax: NCI-H3122, Table 3"}, "EML4-ALK": {"molecular_target": "T2, EML4-ALK (Homo sapiens, UniProt Q9UM73)", "T2 construct": "endogenous in cells; host or cells: H3122 (NSCLC), single-cell clone after CRISPR knock-in of HiBit; the other entry of the earlier key: EML4 (Q9HC35, Echinoderm microtubule-associated protein-like 4)", "T2 sequence (Q9UM73 with tags, fused parts or gaps)": "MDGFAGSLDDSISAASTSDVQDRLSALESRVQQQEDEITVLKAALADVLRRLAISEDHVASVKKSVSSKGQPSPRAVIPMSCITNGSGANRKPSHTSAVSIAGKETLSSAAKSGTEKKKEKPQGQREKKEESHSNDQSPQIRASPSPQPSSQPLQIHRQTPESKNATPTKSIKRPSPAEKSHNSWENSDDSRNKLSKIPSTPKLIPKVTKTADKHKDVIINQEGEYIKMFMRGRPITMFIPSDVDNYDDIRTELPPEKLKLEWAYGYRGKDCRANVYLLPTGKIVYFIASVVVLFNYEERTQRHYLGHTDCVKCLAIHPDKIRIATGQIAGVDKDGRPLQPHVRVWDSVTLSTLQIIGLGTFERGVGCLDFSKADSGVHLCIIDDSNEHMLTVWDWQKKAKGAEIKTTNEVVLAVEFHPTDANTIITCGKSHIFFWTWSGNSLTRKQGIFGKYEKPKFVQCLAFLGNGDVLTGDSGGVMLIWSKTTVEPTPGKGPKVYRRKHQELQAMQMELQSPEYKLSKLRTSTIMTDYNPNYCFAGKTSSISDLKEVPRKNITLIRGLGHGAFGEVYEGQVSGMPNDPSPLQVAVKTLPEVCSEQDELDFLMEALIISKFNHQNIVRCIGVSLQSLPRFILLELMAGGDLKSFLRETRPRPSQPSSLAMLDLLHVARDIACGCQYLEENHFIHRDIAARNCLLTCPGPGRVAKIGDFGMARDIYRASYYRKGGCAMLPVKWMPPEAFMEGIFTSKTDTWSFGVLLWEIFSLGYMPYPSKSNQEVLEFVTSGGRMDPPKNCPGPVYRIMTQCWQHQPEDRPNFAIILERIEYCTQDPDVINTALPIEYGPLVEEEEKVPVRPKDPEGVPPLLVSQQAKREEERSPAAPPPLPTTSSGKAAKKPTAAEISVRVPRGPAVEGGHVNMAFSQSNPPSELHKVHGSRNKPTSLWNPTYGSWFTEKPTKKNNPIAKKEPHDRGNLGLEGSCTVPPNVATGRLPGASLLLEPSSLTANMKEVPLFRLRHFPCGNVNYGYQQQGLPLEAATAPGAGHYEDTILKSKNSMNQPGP", "test": "EML4-ALK HiBit degradation assay in CRISPR-tagged H3122 cells (Nano-Glo HiBit Lytic Detection)", "conditions": "Table 3, H3122 cells, 16 hours; for DC50: read-out: ALK Degradation (H3122 cells) DC50; for Dmax: NCI-H3122, read-out: ALK Degradation (H3122 cells) Dmax"}, "G1202R EML4-ALK V3": {"molecular_target": "T3, G1202R EML4-ALK V3 (Homo sapiens, UniProt Q9UM73, G1202R)", "T3 construct": "expressed in transfected cells; host or cells: Ba/F3; the other entry of the earlier key: EML4 (Q9HC35, Echinoderm microtubule-associated protein-like 4)", "T3 sequence (Q9UM73 1058-1620 G1202R limits assumed)": "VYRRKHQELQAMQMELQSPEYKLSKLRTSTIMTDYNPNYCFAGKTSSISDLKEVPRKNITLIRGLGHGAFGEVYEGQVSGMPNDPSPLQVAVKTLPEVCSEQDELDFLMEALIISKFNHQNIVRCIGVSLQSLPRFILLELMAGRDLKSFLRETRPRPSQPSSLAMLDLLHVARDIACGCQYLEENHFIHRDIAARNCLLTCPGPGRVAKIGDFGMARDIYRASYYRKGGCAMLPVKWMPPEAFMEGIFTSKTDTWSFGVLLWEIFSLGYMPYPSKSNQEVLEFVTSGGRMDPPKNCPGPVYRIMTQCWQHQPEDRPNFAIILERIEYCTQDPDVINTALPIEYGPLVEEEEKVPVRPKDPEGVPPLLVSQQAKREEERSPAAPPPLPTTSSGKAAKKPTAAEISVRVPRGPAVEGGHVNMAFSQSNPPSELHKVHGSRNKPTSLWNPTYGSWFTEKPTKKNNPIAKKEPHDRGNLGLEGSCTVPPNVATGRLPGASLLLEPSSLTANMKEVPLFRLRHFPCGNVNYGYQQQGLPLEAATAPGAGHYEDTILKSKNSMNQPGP", "test": "Western blot of pALK Tyr1507, ALK and tubulin in G1202R EML4-ALK V3 Ba/F3 cells", "description": "(§1) Cells treated with DMSO, compound 96, negative control of 96 or Loratinib at indicated concentrations (nM).\n(§2) The cells were collected and washed with PBS buffer. Cell lysates were prepared by using NP40 lysis buffer (Invitrogen™) supplemented with complete protease inhibitor cocktail (Roche), PhosSTOP™ phosphatase inhibitor cocktail (Roche) and PMSF (1 mM). The lysates were cleared by centrifugation and resolved using Bolt™ 4-12% Bis-Tris plus gels and Western blotted to detect proteins of interest. Antibodies to phospho-ALK^Tyr1507 and tubulin (#14678S and #3873, Cell Signaling Technologies®) were used according to the manufacturers' instructions. For Western Blot visualization, Odyssey® Clx (Li-cor) was utilized."}, "WT EML4-ALK V3": {"molecular_target": "T4, WT EML4-ALK V3 (Homo sapiens, UniProt Q9UM73)", "T4 construct": "expressed in transfected cells; host or cells: Ba/F3; the other entry of the earlier key: EML4 (Q9HC35, Echinoderm microtubule-associated protein-like 4)", "T4 sequence (Q9UM73 1058-1620 limits assumed)": "as the sequence (Q9UM73 1058-1620 G1202R limits assumed) above, with R145G counted along it", "test": "Western blot of pALK Tyr1507, ALK and tubulin in WT EML4-ALK V3 Ba/F3 cells", "description": "as §1, §2"}, "[1]": {"conditions": "compared to Alectinib and Lorlatinib"}}, "note": "Like-named read-outs stand apart in the source and are kept apart here.", "data": [{"smiles": "COc1cc(N2CCC(NC(=O)CCCCCCCCCC(=O)N[C@H](C(=O)N3C[C@H](O)C[C@H]3C(=O)NCc3ccc(-c4scnc4C)cc3)C(C)(C)C)CC2)ccc1Nc1ncc(Cl)c(Nc2ccccc2P(C)(C)=O)n1", "note": "[SIAIS117]", "values": [{"measurement": "IC50", "setting": "H3122 cells", "value": 42, "unit": "nM"}, {"measurement": "DC50", "setting": "FAK; Table 3", "value": 10, "unit": "nM"}, {"measurement": "FAK Degradation (H3122 cells) Dmax", "setting": "FAK; Table 3", "value": 70, "unit": "%"}, {"measurement": "ALK Degradation (H3122 cells) Dmax", "setting": "EML4-ALK", "value": 43, "unit": "%"}, {"measurement": "DC50", "setting": "EML4-ALK", "value": 9, "unit": "nM"}]}, {"smiles": "COc1cc(C2CCN(CCCC#Cc3cccc4c3CN(C3CCC(=O)NC3=O)C4=O)CC2)c(C)cc1Nc1ncc(Cl)c(Nc2ccccc2S(=O)(=O)C(C)C)n1", "note": "(stereo not drawn) [compound 96, 3-(4-(5-(4-(4-((5-chloro-4-((2-(isopropylsulfonyl)phenyl)amino)pyrimidin-2-yl)amino)-5-methoxy-2-methylphenyl)piperidin-1-yl)pent-1-yn-1-yl)-1-oxoisoindolin-2-yl)piperidine-2,6-dione]", "values": [{"measurement": "IC50", "setting": "H3122 cells; Homo sapiens, NCI-H3122", "value": 12, "unit": "nM"}, {"measurement": "ALK degradation by Western blot", "setting": "G1202R EML4-ALK V3; FIG. 1B, 1D", "value": "potent degrader"}, {"measurement": "pALK inhibition by Western blot", "setting": "G1202R EML4-ALK V3; [1]", "value": "significantly improved pALK inhibition compared to Alectinib and Lorlatinib"}, {"measurement": "Dmax", "setting": "FAK", "value": 92, "unit": "%"}, {"measurement": "DC50", "setting": "FAK; Table 3", "value": 2, "unit": "nM"}, {"measurement": "Dmax", "setting": "EML4-ALK", "value": 79, "unit": "%"}, {"measurement": "DC50", "setting": "EML4-ALK", "value": 3, "unit": "nM"}, {"measurement": "ALK degradation by Western blot", "setting": "WT EML4-ALK V3; FIG. 1A, 1C", "value": "potent degrader"}, {"measurement": "pALK inhibition by Western blot", "setting": "WT EML4-ALK V3; [1]", "value": "significantly improved pALK inhibition compared to Alectinib and Lorlatinib"}]}, {"smiles": "COc1cc(C2CCN(CCCCC#Cc3cccc4c3CN(C3CCC(=O)NC3=O)C4=O)CC2)c(C)cc1Nc1ncc(Cl)c(Nc2ccccc2S(=O)(=O)C(C)C)n1", "note": "(stereo not drawn) [compound 95, 3-(4-(6-(4-(4-((5-chloro-4-((2-(isopropylsulfonyl)phenyl)amino)pyrimidin-2-yl)amino)-5-methoxy-2-methylphenyl)piperidin-1-yl)hex-1-yn-1-yl)-1-oxoisoindolin-2-yl)piperidine-2,6-dione]", "values": [{"measurement": "IC50", "setting": "H3122 cells; Homo sapiens, NCI-H3122", "value": 4, "unit": "nM"}, {"measurement": "Dmax", "setting": "FAK", "value": 89, "unit": "%"}, {"measurement": "DC50", "setting": "FAK; Table 3", "value": 1, "unit": "nM"}, {"measurement": "Dmax", "setting": "EML4-ALK", "value": 73, "unit": "%"}, {"measurement": "DC50", "setting": "EML4-ALK", "value": 1, "unit": "nM"}]}, {"smiles": "COc1cc(C2CCN(CCCCCC#Cc3cccc4c3C(=O)N(C3CCC(=O)NC3=O)C4=O)CC2)c(C)cc1Nc1ncc(Cl)c(Nc2ccccc2S(=O)(=O)C(C)C)n1", "note": "(stereo not drawn) [compound 93, 4-(7-(4-(4-((5-chloro-4-((2-(isopropylsulfonyl)phenyl)amino)pyrimidin-2-yl)amino)-5-methoxy-2-methylphenyl)piperidin-1-yl)hept-1-yn-1-yl)-2-(2,6-dioxopiperidin-3-yl)isoindoline-1,3-dione]", "values": [{"measurement": "IC50", "setting": "H3122 cells; Homo sapiens, NCI-H3122", "value": 202, "unit": "nM"}, {"measurement": "Dmax", "setting": "FAK", "value": 89, "unit": "%"}, {"measurement": "DC50", "setting": "FAK; Table 3", "value": 24, "unit": "nM"}, {"measurement": "Dmax", "setting": "EML4-ALK", "value": 82, "unit": "%"}, {"measurement": "DC50", "setting": "EML4-ALK", "value": 49, "unit": "nM"}]}, {"smiles": "COc1cc(CCNCCCCCC#Cc2cccc3c2CN(C2CCC(=O)NC2=O)C3=O)c(C)cc1Nc1ncc(Cl)c(Nc2ccccc2S(=O)(=O)C(C)C)n1", "note": "(stereo not drawn) [compound 91, 3-(4-(7-((4-((5-chloro-4-((2-(isopropylsulfonyl)phenyl)amino)pyrimidin-2-yl)amino)-5-methoxy-2-methylphenethyl)amino)hept-1-yn-1-yl)-1-oxoisoindolin-2-yl)piperidine-2,6-dione]", "values": [{"measurement": "IC50", "setting": "H3122 cells; Homo sapiens, NCI-H3122", "value": 50, "unit": "nM"}, {"measurement": "Dmax", "setting": "FAK", "value": 85, "unit": "%"}, {"measurement": "DC50", "setting": "FAK; Table 3", "value": 4, "unit": "nM"}]}]}
